Experimental data: ChEMBL document CHEMBL1141026, “Synthesis, in vitro antitrypanosomal and antibacterial activity of phenoxy, phenylthio or benzyloxy substituted quinolones” (Bioorg Med Chem Lett, 2009)
≈ marks a conversion by molar mass, not a printed value. Blank lines part the entries; values can stand above or below the molecule they belong to.

Columns and labels:
[1] = tested on: Trypanosoma cruzi; test: Antitrypanosomal activity against trypomastigotes of Trypanosoma cruzi Tulahuen C2C4 containing lacZ gene in rat L6 cells after 4 days; assay type: functional, organism-based; conditions: L6, 96 h
[2] = tested on: Shigella boydii; test: Antibacterial activity against Shigella boydii after 24 hrs by agar dilution method; assay type: functional
[3] = tested on: Shigella flexneri; test: Antibacterial activity against Shigella flexneri after 24 hrs by agar dilution method; assay type: functional
[4] = tested on: Proteus mirabilis; test: Antibacterial activity against Proteus mirabilis after 24 hrs by agar dilution method; assay type: functional
[5] = tested on: Proteus vulgaris; test: Antibacterial activity against Proteus vulgaris after 24 hrs by agar dilution method; assay type: functional
[6] = tested on: Pseudomonas aeruginosa; test: Antibacterial activity against Pseudomonas aeruginosa after 24 hrs by agar dilution method; assay type: functional
[7] = tested on: Morganella morganii; test: Antibacterial activity against Morganella morganii after 24 hrs by agar dilution method; assay type: functional
[8] = tested on: Klebsiella pneumoniae; test: Antibacterial activity against Klebsiella pneumoniae after 24 hrs by agar dilution method; assay type: functional
[9] = tested on: Salmonella enterica subsp. enterica; test: Antibacterial activity against Salmonella enteritidis after 24 hrs by agar dilution method; assay type: functional, Salmonella enterica subsp. enterica serovar Enteritidis
[10] = tested on: Salmonella typhimurium; test: Antibacterial activity against Salmonella Typhimurium after 24 hrs by agar dilution method; assay type: functional, Salmonella enterica subsp. enterica serovar Typhimurium; conditions: Salmonella enterica
[11] = tested on: Citrobacter freundii; test: Antibacterial activity against Citrobacter freundii after 24 hrs by agar dilution method; assay type: functional
[12] = tested on: Aeromonas hydrophila; test: Antibacterial activity against Aeromonas hydrophila after 24 hrs by agar dilution method; assay type: functional
[13] = tested on: Serratia marcescens; test: Antibacterial activity against Serratia marcescens after 24 hrs by agar dilution method; assay type: functional
[14] = tested on: Staphylococcus aureus; test: Antibacterial activity against Staphylococcus aureus after 24 hrs by agar dilution method; assay type: functional
[15] = tested on: Streptococcus pneumoniae; test: Antibacterial activity against Streptococcus pneumoniae after 24 hrs by agar dilution method; assay type: functional
[16] = tested on: Staphylococcus; test: Antibacterial activity against Staphylococcus albus after 24 hrs by agar dilution method; assay type: functional
[17] = tested on: Staphylococcus epidermidis; test: Antibacterial activity against Staphylococcus epidermidis after 24 hrs by agar dilution method; assay type: functional
[18] = tested on: Enterococcus faecalis; test: Antibacterial activity against Enterococcus faecalis after 24 hrs by agar dilution method; assay type: functional
[19] = tested on: Streptococcus; test: Antibacterial activity against gamma-streptococcus after 24 hrs by agar dilution method; assay type: functional
[20] = tested on: Escherichia coli; test: Antibacterial activity against Escherichia coli after 24 hrs by agar dilution method; assay type: functional
[21] = tested on: Shigella sonnei; test: Antibacterial activity against Shigella sonnei after 24 hrs by agar dilution method; assay type: functional

IC50 [1]: 4 µg/mL (≈ 9.56 µM)
SMILES: CCn1cc(C(N)=O)c(=O)c2cc(F)c(Oc3ccccc3)c(Oc3ccccc3)c21

IC50 [1]: > 90 µg/mL
SMILES: CCn1cc(C(N)=O)c(=O)c2cc(F)c(Sc3ccccc3)c(Sc3ccccc3)c21

IC50 [1]: 1.3 µg/mL (≈ 2.91 µM)
SMILES: CCn1cc(C(=O)O)c(=O)c2cc(F)c(OCc3ccccc3)c(OCc3ccccc3)c21

IC50 [1]: > 90 µg/mL
SMILES: CCn1cc(C(=O)OC)c(=O)c2cc(F)c(Oc3ccccc3)c(Oc3ccccc3)c21

IC50 [1]: 1.7 µg/mL (≈ 3.8 µM)
SMILES: CCOC(=O)c1cn(CC)c2c(Oc3ccccc3)c(Oc3ccccc3)c(F)cc2c1=O

IC50 [1]: 1.7 µg/mL (≈ 3.58 µM)
SMILES: CCOC(=O)c1cn(CC)c2c(OCc3ccccc3)c(OCc3ccccc3)c(F)cc2c1=O

The next lines start with the molecule.

SMILES: CCn1cc(C(=O)OC)c(=O)c2cc(F)c(Sc3ccccc3)c(Sc3ccccc3)c21
IC50 [1]: 2.4 µg/mL (≈ 5.15 µM)

SMILES: CCn1cc(C(=O)O)c(=O)c2cc(Sc3ccccc3)c(Sc3ccccc3)c(Sc3ccccc3)c21
IC50 [1]: 39.9 µg/mL (≈ 73.7 µM)

SMILES: CCn1cc(C(=O)O)c(=O)c2cc(F)c(Sc3ccc(C)cc3)c(Sc3ccc(C)cc3)c21
IC50 [1]: 52.7 µg/mL (≈ 110 µM)

SMILES: O=C(O)c1cn(C2CC2)c2c(F)c(Oc3ccccc3)c(F)cc2c1=O
MIC [2]: 1.56 µg/mL (≈ 4.37 µM)
MIC [3]: > 25 µg/mL
MIC [4]: 6.25 µg/mL (≈ 17.5 µM)
MIC [5]: 6.25 µg/mL (≈ 17.5 µM)
MIC [6]: 12.5 µg/mL (≈ 35 µM)
MIC [7]: 3.13 µg/mL (≈ 8.76 µM)
MIC [8]: 1.56 µg/mL (≈ 4.37 µM)
MIC [9]: 3.13 µg/mL (≈ 8.76 µM)
MIC [10]: 3.13 µg/mL (≈ 8.76 µM)
MIC [11]: 1.56 µg/mL (≈ 4.37 µM)
MIC [12]: 6.25 µg/mL (≈ 17.5 µM)
MIC [13]: 12.5 µg/mL (≈ 35 µM)
IC50 [1]: > 90 µg/mL
MIC [14]: 0.39 µg/mL (≈ 1.09 µM)
MIC [15]: 0.098 µg/mL (≈ 0.274 µM)
MIC [16]: 1.56 µg/mL (≈ 4.37 µM)
MIC [17]: 1.56 µg/mL (≈ 4.37 µM)
MIC [18]: 12.5 µg/mL (≈ 35 µM)
MIC [19]: > 25 µg/mL
MIC [20]: 3.13 µg/mL (≈ 8.76 µM)
MIC [21]: 1.56 µg/mL (≈ 4.37 µM)

SMILES: CCn1cc(C(=O)O)c(=O)c2cc(F)c(Sc3ccccc3)c(F)c21
MIC [2]: 12.5 µg/mL (≈ 34.6 µM)
MIC [3]: > 25 µg/mL
MIC [4]: > 25 µg/mL
MIC [5]: > 25 µg/mL
MIC [6]: > 25 µg/mL
MIC [7]: > 25 µg/mL
MIC [8]: 12.5 µg/mL (≈ 34.6 µM)
MIC [9]: > 25 µg/mL
MIC [10]: > 25 µg/mL
MIC [11]: 12.5 µg/mL (≈ 34.6 µM)
MIC [12]: > 25 µg/mL
MIC [13]: > 25 µg/mL
IC50 [1]: 34.6 µg/mL (≈ 95.7 µM)
MIC [14]: 3.13 µg/mL (≈ 8.66 µM)
MIC [15]: 0.78 µg/mL (≈ 2.16 µM)
MIC [16]: > 25 µg/mL
MIC [17]: 3.13 µg/mL (≈ 8.66 µM)
MIC [18]: > 25 µg/mL
MIC [19]: > 25 µg/mL
MIC [20]: > 25 µg/mL
MIC [21]: 12.5 µg/mL (≈ 34.6 µM)

SMILES: CCn1cc(C(=O)O)c(=O)c2cc(F)c(OCc3ccccc3)c(F)c21
MIC [2]: 25 µg/mL (≈ 69.6 µM)
MIC [3]: > 25 µg/mL
MIC [4]: > 25 µg/mL
MIC [5]: > 25 µg/mL
MIC [6]: > 25 µg/mL
MIC [7]: > 25 µg/mL
MIC [8]: 6.25 µg/mL (≈ 17.4 µM)
MIC [9]: > 25 µg/mL
MIC [10]: 25 µg/mL (≈ 69.6 µM)
MIC [11]: 25 µg/mL (≈ 69.6 µM)
MIC [12]: > 25 µg/mL
MIC [13]: > 25 µg/mL
IC50 [1]: 18.3 µg/mL (≈ 50.9 µM)
MIC [14]: 6.25 µg/mL (≈ 17.4 µM)
MIC [15]: 1.56 µg/mL (≈ 4.34 µM)
MIC [16]: > 25 µg/mL
MIC [17]: 25 µg/mL (≈ 69.6 µM)
MIC [18]: > 25 µg/mL
MIC [19]: > 25 µg/mL
MIC [20]: > 25 µg/mL
MIC [21]: 12.5 µg/mL (≈ 34.8 µM)

SMILES: O=C(O)c1cn(C2CC2)c2c(F)c(OCc3ccccc3)c(F)cc2c1=O
MIC [2]: 1.56 µg/mL (≈ 4.2 µM)
MIC [3]: > 25 µg/mL
MIC [4]: 6.25 µg/mL (≈ 16.8 µM)
MIC [5]: 6.25 µg/mL (≈ 16.8 µM)
MIC [6]: 6.25 µg/mL (≈ 16.8 µM)
MIC [7]: 6.25 µg/mL (≈ 16.8 µM)
MIC [8]: 0.78 µg/mL (≈ 2.1 µM)
MIC [9]: 3.13 µg/mL (≈ 8.43 µM)
MIC [10]: 1.56 µg/mL (≈ 4.2 µM)
MIC [11]: 1.56 µg/mL (≈ 4.2 µM)
MIC [12]: 3.13 µg/mL (≈ 8.43 µM)
MIC [13]: 6.25 µg/mL (≈ 16.8 µM)
IC50 [1]: > 90 µg/mL
MIC [14]: 1.56 µg/mL (≈ 4.2 µM)
MIC [15]: 1.56 µg/mL (≈ 4.2 µM)
MIC [16]: 6.25 µg/mL (≈ 16.8 µM)
MIC [17]: 1.56 µg/mL (≈ 4.2 µM)
MIC [18]: 12.5 µg/mL (≈ 33.7 µM)
MIC [19]: 6.25 µg/mL (≈ 16.8 µM)
MIC [20]: 1.56 µg/mL (≈ 4.2 µM)
MIC [21]: 1.56 µg/mL (≈ 4.2 µM)

SMILES: CCOC(=O)c1cn(CC)c2c(Sc3ccccc3)c(Sc3ccccc3)c(F)cc2c1=O
IC50 [1]: 6 µg/mL (≈ 12.5 µM)

SMILES: CCn1cc(C(=O)O)c(=O)c2cc(F)c(Oc3ccc(O)cc3)c(Oc3ccc(O)cc3)c21
IC50 [1]: 57.1 µg/mL (≈ 126 µM)

SMILES: CCn1cc(C(=O)O)c(=O)c2cc(OCc3ccccc3)c(OCc3ccccc3)c(OCc3ccccc3)c21
IC50 [1]: 2.5 µg/mL (≈ 4.67 µM)
